From patent US7632957B2, “Esterification reaction products and cosmetic products” (The Nisshin Oillio Group, Ltd., priority 2005, dated 2009)

What was measured:
Type in all cases: physicochemical
[1] = Solubility of 4-tert-butyl-4′-methoxydibenzoylmethane when mixed with esterification reaction product; conditions: mixed with esterification reaction product (Production Example 1)
[2] = Water resistant ability (waterproof-film-forming ability), contact angle before and after washing; conditions: film on glass plate, before and after washing with flowing tap water 25 mL/s, 1 minute; smaller is better
Procedure: (6) Water Resistant Ability (Waterproof-Film-Forming Ability)
A sample is dissolved in chloroform to prepare a sample solution containing 10% by mass of the sample. The prepared sample solution is applied onto a washed glass plate. Then, the solvent is removed to form a film, and one drop of distilled water is dropped onto the formed film. The contact angle between the film surface and the water droplet is measured. After the measurement, the film is washed with flowing tap water (25 mL/s, 1 minute). The water resistant ability is evaluated by comparing the contact angles before and after the washing. A smaller difference in the contact angle before and after the washing means better water resistant ability.

[3] = Dispersibility test (titanium oxide, octyl palmitate; wetting point and fluid point); conditions: sample 4 g + titanium oxide 20 g, octyl palmitate added; for (4) Dispersibility Wetting point: lower is better
Procedure: A sample (4 g) and titanium oxide (20 g) are mixed, and then octyl palmitate (manufactured by The Nisshin OilliO Group, Ltd. under the trade name Salacos P-8) is gradually added thereto. The point when the mixture become uniform as a whole is determined as the wetting point, and the point when the mixture starts to flow by tilting the whole mixture is determined as the fluid point. The amounts of octyl palmitate added until to reach the respective points are measured and used as the wetting point value and the fluid point value.
A lower wetting point value or a smaller difference between the wetting point value and the fluid point value means higher pigment-dispersing properties of the sample.

[4] = Water-holding property test 1 (water taken up by sample/Vaseline mixture at 40° C.); conditions: sample 1 g + Vaseline 9 g, mass of water to mass of mixture, higher is better
Procedure: (1) Water-Holding Property Test 1
The water-holding property test of esterification reaction products is conducted with reference to the lanolin water retention value test in British Pharmacopoeia (BP) as follows:
A measurement sample (1 g) and Vaseline (9 g) are mixed and vigorously stirred (200 to 300 rpm) in a thermostat chamber at 40° C. while dropwise adding purified water thereto. The point when water is no longer being received is determined as the end-point and is expressed as a percentage of mass of water to mass of the mixture. A higher value means better water-holding properties of the sample.

[5] = Water-retaining property test (mass loss after 24 hours at 40° C.); conditions: reduced mass after 24 hours at 40° C., lid off; lower is better
Procedure: (3) Water-Retaining Property Test
A measurement sample (1 g) and Vaseline (9 g) are mixed and vigorously stirred (500 rpm, 3 minutes) in a thermostat chamber at 40° C. while dropwise adding 10 g of purified water thereto (the ratio of purified water to the mixture of sample and Vaseline was 1:1). When the sample become smooth, 10 g of the sample is uniformly applied onto a Petri dish so as to have a thickness of 0.5 to 1.5 mm and then put in a thermostat chamber at 40° C. with the lid off. After 24 hours, the sample is taken out from the chamber. The mass after the still standing is measured, and the reduced mass after the standing is calculated and is expressed as a percentage to the mass of the applied sample. A lower value means better water-retaining properties of the sample.

[6] = Water-holding property test 2 (differential scanning calorimetry of sample:water 7:3); conditions: sample:water 7:3, DSC 2° C./min from −15° C. to 45° C.; no peak = good water-holding
Procedure: (2) Water-Holding Property Test 2
A measurement sample and water are mixed at a mass ratio of 7:3 and are vigorously stirred (500 rpm, 3 minutes) in a thermostatic chamber at 70° C. to obtain a water-holding substance. The obtained water-holding substance is analyzed with a differential scanning calorimeter (device name “DSC 6200”, manufactured by Seiko Instruments Inc.). That is, the temperature of the water-holding substance is raised at a rate of 2° C./min in the range from −15° C. to 45° C. to obtain a differential scanning calorimetry curve, and the curve is confirmed whether an endothermic peak due to water at around 0° C. is present or not. When this endothermic peak is not observed, the water-holding properties are judged to be good.

Compound | solubility of 4-tert-butyl-4′-methoxydibenzoylmethane [1] | Water resistant ability (difference in contact angle (°)) [2] | (4) Dispersibility Fluid point [3] | (4) Dispersibility Wetting point [3] | (1) Water-holding properties [4] | (3) Water-retaining properties [5] | endothermic peak due to water at around 0° C. [6]
COc1ccc(C(=O)CC(=O)c2ccc(C(C)(C)C)cc2)cc1 [4-tert-butyl-4′-methoxydibenzoylmethane] | improved |  |  |  |  |  | 
polyglyceryl triisostearate |  | 21.0 ° |  |  |  |  | 
CC(C)CCCCCCCCCCCCCCCOC(=O)CC(O)C(=O)OCCCCCCCCCCCCCCCC(C)C (stereo not shown) [Diisostearyl malate, diisostearyl malate] |  | 47.4 ° | 22 % by mass | 3 % by mass | 200 % by mass | 3.0 % by mass | detected
CCCCCCC(O)CCCCCCCCCCC(=O)O[C@H]1CC[C@@]2(C)C(=CC[C@H]3[C@@H]4CC[C@H]([C@H](C)CCCC(C)C)[C@@]4(C)CC[C@@H]32)C1 (stereo partly shown) [Cholesteryl hydroxystearate, cholesteryl hydroxystearate] |  |  | 9 % by mass | 2 % by mass | 320 % by mass | 1.9 % by mass | detected
